In brackets after ≈: the same amount, converted by molar mass.

One data set deals with stomach. The data set can be described thus: Gastric Cytoprotection (0.2N NaOH-induced stomach lesion, ulcer index). The conditions noted are these: test compound 30 minutes before oral 0.2N NaOH; killed one hour later; read-out: ED50 (dose which reduces an ulcer index by 50% of that in a control animal). In kind it is in vivo. On the procedure: Gastric cytoprotection was measured according to the method of A. Robert, et al. (Gastroenterlogy 77 (3), 443 (1979).
Thirty minutes later after the test compound was administered, the animals were given orally 0.2N NaOH and killed one hour later by chloroform anesthesia.
The stomach was taken out, fixed with 5% formalin solution, and opened along greater curvature.
The length of the lesion brought about in the stomach is measured and expressed in terms of the ulcer index. Gastric cytoprotection activity is expressed in Table 1 below as an ED50 value (dose in μg/Kg which reduces an ulcer index by 50% of that in a control animal (ulcer index: 100%)).

A further data set has as its system gastric acid secretion. Description: Gastric Acid Secretion Inhibition (pentagastrin-stimulated, perfused stomach). In kind it is in vivo, rat (male SD rats). The conditions noted are these: intravenous; pentagastrin 0.05 μg/Kg/min; relative to PGE2 set as 1. On the procedure:
Male SD rats were operated by means of ventrotomy under urethane anesthesia. A double cannula was inserted into the fundus of the rat. The stomach lumen was continuously perfused with a physiological saline solution. The perfusate was drawn into the pH meter to continuously measure its pH (M. Ghosh, H. Schild, Br. J. Pharmacol. 13, 54 (1958)).
Pentagastrin was infused continuously at a rate of 0.05 μg/Kg/min. to stimulate gastric acid secretion.
The test compounds were injected intravenuously into the femoral vein when the pH reached a steady state at about 4.0.
Gastric acid secretion inhibition activity is calculated from the area made by pH augmentation against time.
The potency of the compounds is compared and expressed in terms of PGE2 ratio where PGE2 is set as 1.

The next data set concerns platelet aggregation. Description: Inhibiting Effect of Platelet Aggregation (ADP-induced, human platelet rich plasma). The conditions noted are these: human PRP, ADP 10 μM, test compound added one minute prior to ADP, read-out: ED50 (text: IC50), inhibition of platelet aggregation. In kind it is cell-based. On the procedure: Blood collected from human intermediate cubital vein was centrifuged at 800 rpm for 10 minutes. The supernatant was taken out as platelet rich plasma (PRP). Aliquots of PRP were dispensed into test tubes to which […] (ADP) was added (final concentration: 10 μM) to induce platelet aggregation. The extent of platelet aggregation is determined by an aggregometer (Rika Denki, Tokyo) as a change of turbidity. The test compound is added in one minute prior to the addition pf ADP. IC50 values are calculated as a concentration of test compound which inhibits platelet aggregation by 50%.

The conditions of data set [1]: cited from earlier work.
The conditions of data set [2]: neutral aqueous solution; cited from earlier work.

For `CCCCC[C@H](O)/C=C/[C@@H]1[C@H]2c3cccc(/C=C/C(=O)O)c3O[C@H]2C[C@H]1O` [Compound 24, d-(3E)-2,5,6,7-tetranor-3,4-didehydro-4,8-inter-m-phenylene PGI2], the ED50 in the data set with stomach was determined as 21.4 µg/kg. The “Gastric Antisecretory Activity, Relative Potency Ratio [PGE2 = 1.0]” value in the data set with gastric acid secretion is given as 23. Also, the IC50 in the data set with platelet aggregation came out at 0.4 ng/mL (≈ 1.07 nM).

Take `C[C@@H](Oc1ccccc1)[C@H](O)/C=C/[C@@H]1[C@H]2c3cccc(/C=C/C(=O)O)c3O[C@H]2C[C@H]1O` [Compound 77, d-(3E,16R)-16-phenoxy-2,5,6,7,18,19,20-heptanor-3,4-didehydro-4,8-inter-m-phenylene PGI2]: in the data set on stomach, the median effective dose (ED50) came out at 0.4 µg/kg. Also, in the data set on gastric acid secretion, the “Gastric Antisecretory Activity, Relative Potency Ratio [PGE2 = 1.0]” value amounted to 83. For the same compound, the IC50 in the data set on platelet aggregation amounted to 14 ng/mL (≈ 33.1 nM).

Regarding `CC(C)(c1ccccc1)[C@H](O)/C=C/[C@@H]1[C@H]2c3cccc(/C=C/C(=O)O)c3O[C@H]2C[C@H]1O` [Compound 51, d-(3E)-16-methyl-16-phenyl-2,5,6,7,18,19,20-heptanor-3,4-didehydro-4,8-inter-m-phenylene PGI2], the IC50 in the data set on platelet aggregation came to 1800 ng/mL (≈ 4280 nM).

`CCCCC(C)[C@H](O)/C=C/[C@@H]1[C@H]2c3cccc(/C=C/C(=O)O)c3O[C@H]2C[C@H]1O` (stereo partly drawn) [Compound 28, d-(3E)-16-methyl-2,5,6,7-tetranor-3,4-didehydro-4,8-inter-m-phenylene PGI2]: the ED50 in the data set with stomach came out at 0.26 µg/kg. In addition, the “Gastric Antisecretory Activity, Relative Potency Ratio [PGE2 = 1.0]” value in the data set on gastric acid secretion turned out to be 55. Also, the IC50 in the data set with platelet aggregation was found to be 1.6 ng/mL (≈ 4.14 nM).

Consider `CCCOC[C@H](O)/C=C/[C@@H]1[C@H]2c3cccc(/C=C/C(=O)O)c3O[C@H]2C[C@H]1O` [Compound 69, d-(3E)-2,5,6,7-tetranor-17-oxa-3,4-didehydro-4,8-inter-m-phenylene PGI2], for which the 50% effective dose (ED50) in the data set on stomach worked out at 6.5 µg/kg. The “Gastric Antisecretory Activity, Relative Potency Ratio [PGE2 = 1.0]” value in the data set on gastric acid secretion was determined as 10. In addition, the IC50 in the data set on platelet aggregation was 0.58 ng/mL (≈ 1.55 nM).

In the case of `O=C(O)/C=C/c1cccc2c1O[C@H]1C[C@@H](O)[C@H](/C=C/[C@@H](O)c3cccc(F)c3)[C@@H]21` [Compound 43, d-(3E)-15-(m-fluorophenyl)-2,5,6,7,16,17,18,19,20-nonanor-3,4-didehydro-4,8-inter-m-phenylene PGI2], the ED50 in the data set with stomach stood at 0.39 µg/kg.

As to `O=C(O)/C=C/c1cccc2c1O[C@H]1C[C@@H](O)[C@H](/C=C/[C@@H](O)COc3ccccc3)[C@@H]21` [Compound 75, d-(3E)-16-phenoxy-2,5,6,7,17,18,19,20-octanor-3,4-didehydro-4,8-inter-m-phenylene PGI2], the ED50 in the data set on stomach is 0.89 µg/kg. In addition, the “Gastric Antisecretory Activity, Relative Potency Ratio [PGE2 = 1.0]” value in the data set with gastric acid secretion is listed as 73. Moreover, the IC50 with platelet aggregation worked out at 29 ng/mL (≈ 71 nM).

On to `O=C(O)/C=C/c1cccc2c1O[C@H]1C[C@@H](O)[C@H](/C=C/[C@@H](O)c3ccccc3)[C@@H]21` [Compound 37, d-(3E)-15-phenyl-2,5,6,7,16,17,18,19,20-nonanor-3,4-didehydro-4,8-inter-m-phenylene PGI2], for which the ED50 in the data set with stomach stood at 0.83 µg/kg. Besides, the “Gastric Antisecretory Activity, Relative Potency Ratio [PGE2 = 1.0]” value in the data set on gastric acid secretion was 83. Further, the IC50 in the data set with platelet aggregation stood at 0.56 ng/mL (≈ 1.48 nM).

For `CCCC[C@H](C)C[C@H](O)/C=C/[C@@H]1[C@H]2c3cccc(/C=C/C(=O)O)c3O[C@H]2C[C@H]1O` [Compound 31, d-(3E, 17S)-17-methyl-20a-homo-2,5,6,7-tetranor-3,4-didehydro-4,8-inter-m-phenylene PGI2], the IC50 in the data set with platelet aggregation is 0.14 ng/mL (≈ 0.35 nM).

`CCCCC(C)(C)[C@H](O)/C=C/[C@@H]1[C@H]2c3cccc(/C=C/C(=O)O)c3O[C@H]2C[C@H]1O` [Compound 34, d-(3E)-16,16-dimethyl-2,5,6,7-tetranor-3,4-didehydro-4,8-inter-m-phenylene PGI2]: in the data set on stomach, the ED50 worked out at 1.6 µg/kg. Moreover, the “Gastric Antisecretory Activity, Relative Potency Ratio [PGE2 = 1.0]” value in the data set on gastric acid secretion is recorded as 36. Besides, the IC50 with platelet aggregation was determined as 45 ng/mL (≈ 112 nM).

`O=C(O)/C=C/c1cccc2c1O[C@H]1C[C@@H](O)[C@H](/C=C/[C@@H](O)c3ccc(Cl)cc3)[C@@H]21` [Compound 40, d-(3E)-15-(p-chlorophenyl)-2,5,6,7,16,17,18,19,20-nonanor-3,4-didehydro-4,8-inter-m-phenylene PGI2]: the ED50 with stomach was found to be 0.46 µg/kg.

Turning to `O=C(O)/C=C/c1cccc2c1O[C@H]1C[C@@H](O)[C@H](/C=C/[C@@H](O)C3CCCCC3)[C@@H]21` [Compound 60, d-(3E)-15-cyclohexyl-2,5,6,7,16,17,18,19,20-nonanor-3,4-didehydro-4,8-inter-m-phenylene PGI2], the ED50 with stomach worked out at 0.88 µg/kg. For the same compound, the “Gastric Antisecretory Activity, Relative Potency Ratio [PGE2 = 1.0]” value in the data set on gastric acid secretion is 14. In addition, the IC50 with platelet aggregation worked out at 0.35 ng/mL (≈ 0.91 nM).

Turning to `O=C(O)/C=C/c1cccc2c1O[C@H]1C[C@@H](O)[C@H](/C=C/[C@@H](O)C3CCCC3)[C@@H]21` [Compound 57, d-(3E)-15-cyclopentyl-2,5,6,7,16,17,18,19,20-nonanor-3,4-didehydro-4,8-inter-m-phenylene PGI2], the ED50 with stomach was 5.07 µg/kg.

Regarding `CC(C)(Oc1ccccc1)[C@H](O)/C=C/[C@@H]1[C@H]2c3cccc(/C=C/C(=O)O)c3O[C@H]2C[C@H]1O` [Compound 79, d-(3E)-16-methyl-16-phenoxy-2,5,6,7,18,19,20-heptanor-3,4-didehydro-4,8-inter-m-phenylene PGI2], the ED50 in the data set on stomach was found to be 0.5 µg/kg. Moreover, the “Gastric Antisecretory Activity, Relative Potency Ratio [PGE2 = 1.0]” value in the data set on gastric acid secretion came to 112.

Consider `CCOCC(C)(C)[C@H](O)/C=C/[C@@H]1[C@H]2c3cccc(/C=C/C(=O)O)c3O[C@H]2C[C@H]1O` [Compound 72, d-(3E)-16,16-dimethyl-2,5,6,7-tetranor-18-oxa-3,4-didehydro-4,8-inter-m-phenylene PGI2], for which the 50% effective dose (ED50) with stomach came to 2.7 µg/kg. Besides, the “Gastric Antisecretory Activity, Relative Potency Ratio [PGE2 = 1.0]” value with gastric acid secretion is 9. For the same compound, in the data set with platelet aggregation, the IC50 was 100 ng/mL (≈ 248 nM).

Take `CCCCC[C@H](O)/C=C/[C@@H]1[C@H]2C/C(=C/CCCC(=O)O)O[C@H]2C[C@H]1O` [PGI2, Prostaglandin I2]: in data set [1], the “duration of physiological activities in vivo” value is recorded as “only short duration of physiological activities in vivo” and the metabolism in vivo entry is listed as “metabolized quickly in vivo”. Further, the stability result in data set [2] is reported as “extremely unstable even in neutral aqueous solution”.

One may read the ED50 as the dose at which the effect has come halfway, by size or by number of responders. In general, IC50 refers to the concentration needed to halve the response being measured.

These data come from US5086071A, “2,5,6,7-tetranor-4,8-inter-m-phenylene PGI2 derivatives” (Toray Industries, Inc., priority 1989, dated 1992).
